In PMC6943527, “Are the Hydantoin-1,3,5-triazine 5-HT6R Ligands a Hope to a Find New Procognitive and Anti-Obesity Drug? Considerations Based on Primary In Vivo Assays and ADME-Tox Profile In Vitro” (Molecules, 2019):
pKi: −log10 of the molar value. Entries after “also recorded” stand apart in the source; their conditions may differ.

What was measured:
CYP3A4 = biological target: T1, CYP3A4 (Homo sapiens, UniProt P08684); test: CYP3A4 P450-Glo drug-drug interaction assay; type: in vitro ADME
T1 construct: purchased Promega (Madison, WI, USA)
T1 sequence (P08684 whole entry): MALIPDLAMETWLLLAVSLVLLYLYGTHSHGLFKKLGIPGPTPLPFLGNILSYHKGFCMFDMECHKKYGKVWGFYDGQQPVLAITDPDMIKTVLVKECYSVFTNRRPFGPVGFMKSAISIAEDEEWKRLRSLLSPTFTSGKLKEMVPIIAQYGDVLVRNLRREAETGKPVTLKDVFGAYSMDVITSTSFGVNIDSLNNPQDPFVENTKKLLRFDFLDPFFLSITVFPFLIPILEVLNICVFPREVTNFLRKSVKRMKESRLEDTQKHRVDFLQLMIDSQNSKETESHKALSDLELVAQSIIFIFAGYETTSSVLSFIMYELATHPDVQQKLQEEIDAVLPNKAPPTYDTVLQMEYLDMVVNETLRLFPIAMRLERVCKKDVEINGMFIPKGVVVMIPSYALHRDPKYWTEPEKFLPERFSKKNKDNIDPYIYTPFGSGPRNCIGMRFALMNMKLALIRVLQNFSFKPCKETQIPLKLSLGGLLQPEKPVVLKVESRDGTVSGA
Description: (§1) The influence of triazine derivatives on two the most involved in drug metabolism CYP (cytochrome P450) isoforms CYP3A4 and CYP2D6 was also investigated.
(§2) The study was performed using the CYP3A4 P450-Glo^TM and CYP2D6 P450-Glo^TM commercial tests provided by Promega (Madison, WI, USA). The influence of compounds on CYPs activity was tested in white polystyrene, flat-bottom Nunc^TM MicroWell^TM 96-well microplates (Thermo Scientific, Waltham, MA USA), and the bioluminescence signal was measured with a microplate reader (EnSpire) in luminescence mode, as described previously. KMP-10 and DJ-18 were tested in triplicate in the range of 0.01–25 µM for both isoforms’ P450 cytochrome. KE and QD were used as the reference compounds for CYP3A4 and CYP2D6, respectively.

CYP2D6 = biological target: T2, CYP2D6 (Homo sapiens, UniProt P10635); test: CYP2D6 P450-Glo drug-drug interaction assay; type: in vitro ADME; details: summary in comparison to SUVN-502
T2 construct: purchased Promega (Madison, WI, USA)
T2 sequence (P10635 whole entry): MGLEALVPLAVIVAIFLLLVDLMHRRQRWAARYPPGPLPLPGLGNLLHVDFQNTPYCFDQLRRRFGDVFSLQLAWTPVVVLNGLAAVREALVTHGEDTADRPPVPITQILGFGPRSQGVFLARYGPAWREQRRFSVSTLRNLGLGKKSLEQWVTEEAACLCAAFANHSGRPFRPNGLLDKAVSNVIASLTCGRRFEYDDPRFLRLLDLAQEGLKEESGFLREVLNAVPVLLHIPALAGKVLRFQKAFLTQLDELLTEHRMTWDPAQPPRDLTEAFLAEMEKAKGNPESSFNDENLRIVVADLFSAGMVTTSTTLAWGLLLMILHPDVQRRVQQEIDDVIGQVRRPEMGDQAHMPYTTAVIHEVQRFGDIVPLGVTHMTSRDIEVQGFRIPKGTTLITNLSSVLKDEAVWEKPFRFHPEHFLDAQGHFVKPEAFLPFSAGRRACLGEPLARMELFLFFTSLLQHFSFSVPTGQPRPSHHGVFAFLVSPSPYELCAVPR
Description: as §1, §2

5-HT6 = biological target: 5-HT6; parameters: method as in PMID 30282913; details: radioligand binding, average of at least two independent experiments; read-out: Ki 5-HT6 [3H]-LSD; cited from earlier work
[1] = Model of excessive eating (palatable diet), 3-week administration; type: in vivo, male Wistar rats
Description: The experiments were carried out on male Wistar rats. Their initial body weight was 210–230 g. The animals were housed in pairs in plastic cages in constant temperature facilities exposed to a light–dark cycle; water and food were available ad libitum. The control and experimental groups consisted of eight animals each. All experiments were conducted according to the guidelines of the Animal Use and Care Committee of the Jagiellonian University and were approved for realization (2013 and 2015, Poland; Permissions No 136/2013 and 258/2015).
In order to determine the anorectic activity of KMP-10, its effect on caloric and water intake in the model of excessive eating was assessed. Male Wistar rats were housed in pairs. Two groups of 8 rats were fed diets consisting of milk chocolate with nuts, cheese, salted peanuts, and 7% condensed milk; these rats also had access to a standard feed (Labofeed B, Morawski Manufacturer Feed, Poland) and water ad libitum for 3 weeks. The palatable control group (palatable diet + vehicle) received vehicle (1% Tween 80, i.p.), while the palatable test group (palatable diet + KMP-10 5 mg) was intraperitoneally injected with KMP-10 at the dose 5 mg/kg b.w./day dissolved in 1% Tween 80. The intakes of food and water were evaluated daily. On the 22th day, 20 min after the i.p. administration of heparin 1000 units/rat and thiopental (70 mg/kg b.w.), blood, peritoneal fat pads, liver were collected from animals.
The palatable diet contained 100 g of peanuts—614 kcal; 100 mL of condensed milk—131 kcal; 100 g of milk chocolate with hazelnuts—[…]; and 100 g of cheese (Greek type)—270 kcal.
The spontaneous activity of rats was measured on the 1st, 14th and 20th day of the treatment with a special RFID-system—TraffiCage (TSE-Systems, Germany). The animals were subcutaneously implanted with transmitter identification (RFID), which enabled the presence and time spent in different areas of the cage to be counted; the data were then grouped in a special computer program.
To determine the glucose or cholesterol or triglyceride levels in blood, standard enzymatic and spectrophotometric tests (Biomaxima S.A. Lublin, Poland) were used. The substrate was decomposed with enzymes that were appropriate for the relevant product, which was converted to a colored compound. Coloration was proportional to the concentration. The absorbance was measured at a wavelength of 500 nm.

[2] = 5 mg/kg b.w., vs group fed the palatable feed
[3] = model of excessive eating, 5 mg/kg b.w./day i.p.
[4] = palatable diet, 5 mg/kg b.w./day i.p., 3 weeks, vs obesity control group

With `CN1CCN(c2nc(N)nc(CN3C(=O)NC(C)(c4ccc5ccccc5c4)C3=O)n2)CC1` (centres unmarked) [KMP-10, 3-((4-amino-6-(4-methylpiperazin-1-yl)-1,3,5-triazin-2-yl)methyl)-5-methyl-5-(naphthalen-2-yl)imidazolidine-2,4-dione] the “Effect on CYP3A4 activity” value (CYP3A4; highest used dose of 25 µM) was “slight stimulation effect”, the “Influence on CYP3A4” value (CYP3A4; summary in comparison to SUVN-502) was “almost no influence” and the “Influence on CYP2D6” value (CYP2D6) was “almost no influence”. For the same molecule, the pKi (5-HT6) was 7.06, the HDL cholesterol [1, 2] was “significantly increased; also recorded: significant increase” and the “Total cholesterol in blood” value [1, 2] was “significantly decreased”. The Plasma glucose [1, 3] was “did not reduce”, the Plasma triglyceride [1, 3] was “did not reduce” and the “Amount of calories consumed” value [1, 4] was “significantly reduced”. For the same molecule, the Water intake [1, 4] was “but not water intake” and the “Amount of peritoneal fat” value ([1]; three-week chronic treatment, 5 mg/kg b.w./day i.p.) was “did not reduce”.
